Common to all, as to experiment: growth of human tumour cells (NCI), 48 h
For test [1], the system named is UACC-257 melanoma.
For test [2], the system named is MALME-3M melanoma.
Test [3] relates to HCT-15 colon.
For test [4], the system named is A498 renal.
Test [5] concerns SK-MEL-28 melanoma.
The test system of test [6] is OVCAR-8 ovarian.
The subject of test [7] is SW-620 colon.
In test [8] the test system is M14 melanoma.
Test [9] has as its system HS 578T breast.
In test [10] the test system is CAKI-1 renal.

Structures are written as SMILES.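 Where inhibition never reached the appropriate level, the endpoint shown equals the highest concentration tested. Otherwise, values were interpolated linearly from a five-concentration, 48-hour dose response in 96-well plates. GI50 = concentration required for 50% inhibition of growth. TGI marks complete inhibition of growth.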

`O=C(Nc1ccc([N+](=O)[O-])cc1C(=O)O)c1ccc([N+](=O)[O-])cc1`: the TGI in test [1], in [2], in test [3], in [4], in test [5] and in test [6] was > 100 µM throughout. Also, the TGI in test [7] and in [8] was > 100 µM in each case.
For the compound `Oc1ccccc1Nc1nc2ccccc2c2occc12`, the GI50 in test [9] was 3.9 µM; in test [1], 16.1 µM; in test [3] it was 12.8 µM; in test [10], 1.78 µM; in [5], 15.1 µM; in [6], 15.4 µM. Moreover, the GI50 in test [7] was 13.2 µM; in test [8], 11.6 µM. For the same compound, the TGI in test [9] was determined as 20.8 µM; in test [1], 29.6 µM; in [3], 31.7 µM; in test [10], 12.8 µM; in test [5], 31.8 µM; in test [6], 35.8 µM. Also, the TGI in test [7] was found to be 26 µM; in [8] it was 23.8 µM.
On to `CCC[CH2][Sn]1([CH2]CCC)[O]C(=O)c2cccc(OC)c2[O]1`, for which the GI50 in [1] is 0.199 µM; in [2], 0.14 µM; in [3], 0.698 µM; in [4] it was 0.21 µM; in test [10] it was 0.0732 µM; in [5], 0.234 µM. The GI50 in test [6] is 0.469 µM; in test [7], 0.148 µM; in test [8] it was 0.422 µM. Moreover, the TGI came to 0.537 µM in test [1]; 0.633 µM in test [2]; 2 µM in [3]; 0.465 µM in test [4]; 0.775 µM in [10]; 0.747 µM in test [5]. Also, the TGI in [6] was 1.71 µM; in [7] it was 0.366 µM; in [8], 1.56 µM.
For `COCOCc1cc(OCc2ccccc2)c(OC)cc1Br`, the TGI in test [1], in test [2], in test [3], in test [4], in [10] and in test [5] was > 100 µM in each case. The TGI in test [6] and in test [7] was > 100 µM in each case.
For the compound `CCCC(=O)Nc1cc([N+](=O)[O-])c([N+](=O)[O-])cc1OC`, the TGI in test [9] is 46.5 µM; in test [1] it was 35.4 µM; in [3], > 100 µM; in test [4], 32.5 µM; in [10], 29.5 µM; in [5], 32.2 µM. In addition, the TGI in test [6] is 34.2 µM; in [7] it was 89.9 µM; in [8], 25.6 µM.
`O=C(CC(O)c1ccncc1)c1ccccc1` (stereo unspecified): the GI50 is 36.4 µM in test [9]; 23.8 µM in test [1]; 28.2 µM in [3]; 23.1 µM in test [10]; 21.9 µM in test [5]; 33.8 µM in [6]. In addition, the GI50 in test [7] is 32.2 µM; in test [8] it was 28.6 µM. Also, the TGI in test [9] is > 100 µM; in test [1], 80.4 µM; in test [3], > 100 µM; in test [10], > 100 µM; in test [5] it was 70.4 µM; in test [6] it was > 100 µM. The TGI in test [7] and in test [8] was > 100 µM in each case.
`O=C(CC/C(CC(=O)c1ccc(Cl)cc1)=N/O)Nc1ccc(Cl)c(Cl)c1`: the TGI in test [1], in test [2], in [3], in [4], in test [10] and in test [5] was > 100 µM each time. In addition, the TGI in [6], in test [7] and in test [8] was > 100 µM each time.
Take `COC(=O)c1oc2c(O)c(OC)c(Br)cc2c1C`: the GI50 in [9] is 33.7 µM; in test [1] it was 24.5 µM; in [3], 17.6 µM; in test [4] it was 32.7 µM; in test [10], 43.4 µM; in test [6], 28.7 µM. For the same compound, the GI50 is 30.5 µM in test [7] and 22.6 µM in test [8]. Also, the TGI is > 100 µM in test [9]; 99.6 µM in test [1]; 35.5 µM in test [3]; 65.8 µM in test [4]; > 100 µM in [10]; 91.7 µM in [6]. Further, the TGI is 82.5 µM in [7] and 42.6 µM in [8].
Regarding `COc1ccc(NC(=O)COC(=O)c2cccc3c(=O)c4ccccc4[nH]c23)cc1`, the TGI in test [1] was 42.7 µM; in test [2], 50.2 µM; in [4], 39.6 µM; in [10], 67.9 µM; in test [5], 84.8 µM; in [6], 55.9 µM. The TGI was found to be 60.1 µM in [7] and 90.7 µM in [8].
As for `CCOP(=O)(OCC)/C(C#N)=C/c1ccc[nH]1`, the TGI in [1], in test [2], in test [3], in test [10], in test [5] and in [6] was > 100 µM throughout. For the same compound, the TGI in test [7] and in test [8] was > 100 µM each time.
`CC1(C)N=C(N)N=C(N)N1c1ccc(OCC(=O)N2CCOCC2)c(Cl)c1`: the GI50 in test [1] was > 100 µM; in [2], 6.17 µM; in test [3] it was > 100 µM; in test [4], > 100 µM; in test [5], 30.1 µM; in test [6], 7.25 µM. Further, the figures for the GI50 in [7] and in test [8] were 0.714 µM and 4.19 µM, respectively. The TGI in test [1], in [2], in test [3], in [4], in test [5] and in test [6] was > 100 µM each time. The TGI in test [7] and in [8] was > 100 µM throughout.
As to `CCOCC(=O)N[C@H]1CCc2cc(OC(=O)COCC)c(OC)c(OC)c2-c2ccc(SC)c(=O)cc21`, the TGI in test [2] is > 100 µM; in test [3], 2.85 µM; in test [5], > 100 µM; in test [7] it was > 100 µM; in test [8], 0.0762 µM. The GI50 in [5] was > 100 µM; in test [6], 0.0365 µM; in test [8], 0.0134 µM.
For `C=CCC12CC(=O)C=C1CCC1(C2)OCCO1` (stereo unspecified), the TGI in [1], in test [2], in test [3], in test [4], in [10] and in test [5] was > 100 µM throughout. The TGI in test [7] and in test [8] was > 100 µM each time.
With `N#CCCN(CCC#N)c1ccc(/C=N\c2nc(-c3ccccc3)cs2)cc1`, the TGI in test [1], in test [2], in [3], in test [4], in [10] and in test [5] was > 100 µM throughout. Besides, the TGI in [6], in test [7] and in [8] was > 100 µM throughout.
With `Cc1cc(Cl)ccc1NC(=O)CC1SC(N)=NC1=O` (stereo unspecified), the TGI in test [1], in test [2], in test [3], in [4], in [10] and in [5] was > 100 µM each time. In addition, the TGI in test [6], in test [7] and in test [8] was > 100 µM throughout.
In the case of `CC(=O)OC1(C#N)CC2OC1C1C2N1C(=O)OC(C)(C)C` (stereo unspecified), the TGI in test [2], in test [3], in [4], in [10], in [5] and in test [6] was > 100 µM throughout. For the same compound, the TGI in [7] and in test [8] was > 100 µM throughout.
As for `Cc1ccc(NC(=O)COC(=O)c2cccc3c(=O)c4ccccc4[nH]c23)cc1`, the TGI in test [1] is > 100 µM; in test [2] it was > 100 µM; in test [4], 92.4 µM; in [10] it was > 100 µM; in test [5], > 100 µM; in [6], > 100 µM. For the same compound, the TGI in [7] and in [8] was > 100 µM each time.
As to `COC(=O)c1c(C)cc2c(c1O)C1(O)C(=O)c3cc4c(c(O)c3C(=O)C1(OC)C(O)C2)C(=O)C=C(NC1OC(C)C(OC)C(O)C1OC)C4=O` (stereo unspecified), the TGI in test [1] is 0.0357 µM; in [2] it was 0.249 µM; in test [3], 0.443 µM; in [4], 0.71 µM; in [10], 0.806 µM; in [6] it was 0.14 µM. In addition, the TGI came to 0.164 µM in test [7] and 0.262 µM in [8].
Regarding `CN(C)CC(C)(C)C(/C=C/c1ccccc1)=N\Nc1ccccc1`, the TGI came to 23.4 µM in test [1]; 26.6 µM in [2]; 2.46 µM in test [3]; 37.9 µM in test [4]; 10.8 µM in test [5]; 27.5 µM in test [6]. In addition, the TGI is 10.4 µM in test [7] and 20.3 µM in test [8].
Turning to `O=C1CCCC(=O)C1=C(O)CCCCCCCCCCc1ccccc1`, the TGI was > 100 µM in test [1]; 38 µM in test [10]; > 100 µM in [5]; > 100 µM in [6]; > 100 µM in test [7]; > 100 µM in test [8].
For the compound `Cc1ccc([N+](=O)[O-])cc1NC(=O)C(=O)Cc1cc(=O)oc2cc(O)ccc12`, the TGI in test [1], in test [2], in test [3], in test [4], in test [10] and in test [5] was > 100 µM each time. The TGI in [6] and in test [8] was > 100 µM throughout.
Consider `Cc1cc(NS(=O)(=O)c2ccc(NC(=O)c3cccc4cc5ccccc5nc34)cc2)no1`, for which the TGI in test [1] was determined as 87.6 µM; in test [2], 31.9 µM; in test [3], 35.7 µM; in test [4], 37 µM; in test [10] it was 46.7 µM; in test [5], 33.1 µM. Moreover, the figures for the TGI in test [6], in test [7] and in test [8] were 45.8 µM, 70.2 µM and 43 µM, respectively.
Regarding `Cc1nc(N)sc1N=Nc1cc(Cl)c([N+](=O)[O-])cc1Cl`, the TGI in [9] stood at 95.9 µM; in test [1], 44.7 µM; in [2] it was 32.7 µM; in test [3], 79.3 µM; in test [10], 68.5 µM; in test [5], 33.9 µM. Besides, the figures for the TGI in test [6], in [7] and in [8] were 36.8 µM, 35.8 µM and > 100 µM, respectively.
In the case of `N#CCc1ccc(/C(C#N)=C2/OC(=N)C(c3ccc(CC#N)cc3)C2=O)cc1` (stereo unspecified), the TGI in test [1], in test [2], in test [3], in test [4], in test [10] and in test [5] was > 100 µM throughout. Moreover, the TGI in [6], in test [7] and in [8] was > 100 µM throughout.
`O=C1C2C(C(=O)N1c1ccccc1)C1(c3ccccc3)OC2(c2ccccc2)c2ccccc21` (stereo unspecified): the TGI in [1], in [2], in test [3], in test [10], in test [5] and in test [6] was > 100 µM in each case. Further, the TGI in test [7] and in test [8] was > 100 µM throughout.
As for `Oc1ccc2c3c1OC1C(=NN=C4CCC5(O)C6Cc7ccc(O)c8c7C5(CCN6CC5CC5)C4O8)CCC4(O)C(C2)N(CC2CC2)CCC314` (stereo unspecified), the TGI is 43.1 µM in test [1]; 34.5 µM in [2]; > 100 µM in [3]; > 67.7 µM in [4]; > 100 µM in test [10]; 49.4 µM in test [5]. Further, the TGI worked out at 84 µM in test [6], 41.6 µM in [7] and 33.4 µM in test [8].
